Experimental data taken from patent US9820951B2, “Pulmonary disease treatment and diagnosis based on Arhgef1” (NATIONAL JEWISH HEALTH, A NON-PROFIT ORGANIZATION, priority 2011, dated 2017).

What was measured:
MMP2 = MMP2 activity by gelatin zymography in conditioned media of mouse peritoneal macrophages cultured on fibronectin; assay type: cell-based; conditions: wild type and Arhgef1−/− macrophages; 20 mM aspirin or 28 μM L-655,240
Procedure: FIG. 12. Thromboxane receptor signaling is necessary for fibronectin-induced MMP9 production by macrophages and is attenuated by Arhgef1. A, representative gelatin zymograms of conditioned media from macrophages cultured on plastic (ctl) or FN and treated with 1.56 or 6.25 μM of the thromboxane receptor antagonist PTA2. Wild type (+/+) and Arhgef1^−/− (−/−) samples from separate zymograms are shown. B, quantitation of MMP9 activity as determined by densitometric analysis of zymograms in A. The results are representative of two independent experiments. C, representative zymograms from conditioned media from macrophages cultured on plastic or fibronectin and treated with 28 μM of the thromboxane receptor antagonist L-655,240. D, quantitation of MMP9 activity as determined by densitometric analysis of zymograms in C. The results are compiled from two independent experiments with n=4 for both wild type (open bars) and Arhgef1^−/− (black bars) samples. […] E, MMP2 activity was quantitated in conditioned media as previously described for MMP9. […] The data represent the means±S.E. F, MMP9 activity was quantitated as previously described and normalized to a percentage of fibronectin response for each genotype. […] G, relative Mmp9 expression was measured by qPCR in macrophages cultured on fibronectin in the presence of the thromboxane receptor agonist (U-46619, 10 nM), S1P (40 nM), or LPA (10 μM). […]

Mmp9 [1] = experiment: Mmp9 expression by qPCR in mouse peritoneal macrophages cultured on fibronectin; assay type: cell-based; conditions: wild type and Arhgef1-deficient macrophages on fibronectin; 40 nM S1P, 10 μM LPA, 6 μM PTXA2; 24 h
Procedure: (§1) FIG. 4. TP signaling is required for MMP9 production in vitro and in vivo. A) Macrophage Mmp9 expression after culture on fibronectin for 24 hrs in media/vehicle (−), 40 nM S1P, 10 μM LPA, 10 nM U-46619 (TP agonist) or 6 μM PTXA2 (TP antagonist). Data represent normalized mean±SE. B) Arhgef1−/− mice (n=16) were exposed to aerosolized PBS (n=16), 220 μM PTXA2 (n=6) or 190 μM U-46619 (n=10) for 20 minutes and BAL harvested 1 day later and MMP activity measured.
FIG. 12. Thromboxane receptor signaling is necessary for fibronectin-induced MMP9 production by macrophages and is attenuated by Arhgef1. A, representative gelatin zymograms of conditioned media from macrophages cultured on plastic (ctl) or FN and treated with 1.56 or 6.25 μM of the thromboxane receptor antagonist PTA2. Wild type (+/+) and Arhgef1^−/− (−/−) samples from separate zymograms are shown. B, quantitation of MMP9 activity as determined by densitometric analysis of zymograms in A. The results are representative of two independent experiments. C, representative zymograms from conditioned media from macrophages cultured on plastic or fibronectin and treated with 28 μM of the thromboxane receptor antagonist L-655,240. D, quantitation of MMP9 activity as determined by densitometric analysis of zymograms in C. The results are compiled from two independent experiments with n=4 for both wild type (open bars) and Arhgef1^−/− (black bars) samples. The data represent the means±S.E. *, p<0.05 Student's two-tailed t test compared with conditioned media from cells cultured on plastic. #, p<0.05 Student's two-tailed t test comparing conditioned media from wild type cells to Arhgef1^−/− cells cultured under identical conditions. $, p<0.05 Student's two-tailed t test compared with conditioned media from cells cultured on fibronectin. E, MMP2 activity was quantitated in conditioned media as previously described for MMP9. The results are compiled from four independent experiments with n=10 for wild type (open bars) and Arhgef1^−/− (black bars) samples cultured on either plastic or fibronectin. For cells treated with 20 mM aspirin, n=6 for wild type (open bars) and Arhgef1^−/− (black bars) samples. For cells treated with 28 μM L-655,240, n=4 for wild type (open bars) and Arhgef1^−/− (black bars) samples. The data represent the means±S.E. F, MMP9 activity was quantitated as previously described and normalized to a percentage of fibronectin response for each genotype. The cells were either untreated or treated with 0.5% Me2SO or 28 μM L-655,240. The results are compiled from two independent experiments with n=3 for all conditions and genotypes. The data represent the means±S.E. *, p<0.05 Student's two-tailed t test compared with conditioned media from cells cultured on fibronectin. G, relative Mmp9 expression was measured by qPCR in macrophages cultured on fibronectin in the presence of the thromboxane receptor agonist (U-46619, 10 nM), S1P (40 nM), or LPA (10 μM). […] Wild type (open bars, n=12, 6, 3, and 3 for fibronectin, +U-46619, +S1P, and +LPA, respectively) and Arhgef1^−/− (black bars, n=14, 6, 3, and 2, respectively) from at least two independent experiments. The data represent the means±S.E. *, p<0.05 Student's two-tailed t test compared with conditioned media from cells cultured on fibronectin, #, p<0.05 Student's two-tailed t test comparing conditioned media from wild type cells to Arhgef1^−/− cells cultured under identical conditions. […]

Mmp9 [2] = experiment: MMP9 activity in BAL of Arhgef1−/− mice after aerosol exposure; assay type: in vivo, mouse; conditions: inhalation of aerosol 20 min (220 μM PTXA2, 190 μM U-46619), BAL 24 hours later
Procedure: as §1

Compound	MMP2 activity (MMP2)	Mmp9 expression (Mmp9 [1])	MMP9 activity in BAL (Mmp9 [2])
CC(=O)Oc1ccccc1C(=O)O [aspirin]	not affected	–	–
CCCCC[C@@H](O)/C=C/[C@H]1C[C@H]2C[C@@H]([C@@H]1C/C=C\CCCC(=O)O)C2(C)C (relative stereo) [PTXA2, (18-(1alpha,2beta(Z),3alpha(1E,3S*),5alpha))-7-(3-(3-Hydroxy-1-octenyl)-6,6-dimethylbicyclo(3.1.1)hept-2-yl)-5-heptenoic acid]	–	ablated Mmp9 expression	considerably diminished MMP9 activity
